Entries after “also recorded” stand apart in the source; their conditions may differ.
How the values were obtained:
[1] = biological target: T1, BRAF WT (Homo sapiens, UniProt P15056); experiment: Elisa kinase inhibition assay (Carna Biosciences); type: biochemical; details: Km ATP, duplicate
T1 construct: purchased Carna Biosciences
Method: Kinase assays were performed by Carna Biosciences by their protocol in duplicate using Km amounts of ATP calculated for each kinase.

[2] = biological target: T2, BRAF^V600E (SK-MEL-28 cells, homozygous) (Homo sapiens, UniProt P15056, V600E); experiment: BRAF degradation by immunoblot in SK-MEL-28 cells; type: cell-based
T2 construct: endogenous in cells; host or cells: SK-MEL-28
T2 sequence (P15056 whole entry V600E): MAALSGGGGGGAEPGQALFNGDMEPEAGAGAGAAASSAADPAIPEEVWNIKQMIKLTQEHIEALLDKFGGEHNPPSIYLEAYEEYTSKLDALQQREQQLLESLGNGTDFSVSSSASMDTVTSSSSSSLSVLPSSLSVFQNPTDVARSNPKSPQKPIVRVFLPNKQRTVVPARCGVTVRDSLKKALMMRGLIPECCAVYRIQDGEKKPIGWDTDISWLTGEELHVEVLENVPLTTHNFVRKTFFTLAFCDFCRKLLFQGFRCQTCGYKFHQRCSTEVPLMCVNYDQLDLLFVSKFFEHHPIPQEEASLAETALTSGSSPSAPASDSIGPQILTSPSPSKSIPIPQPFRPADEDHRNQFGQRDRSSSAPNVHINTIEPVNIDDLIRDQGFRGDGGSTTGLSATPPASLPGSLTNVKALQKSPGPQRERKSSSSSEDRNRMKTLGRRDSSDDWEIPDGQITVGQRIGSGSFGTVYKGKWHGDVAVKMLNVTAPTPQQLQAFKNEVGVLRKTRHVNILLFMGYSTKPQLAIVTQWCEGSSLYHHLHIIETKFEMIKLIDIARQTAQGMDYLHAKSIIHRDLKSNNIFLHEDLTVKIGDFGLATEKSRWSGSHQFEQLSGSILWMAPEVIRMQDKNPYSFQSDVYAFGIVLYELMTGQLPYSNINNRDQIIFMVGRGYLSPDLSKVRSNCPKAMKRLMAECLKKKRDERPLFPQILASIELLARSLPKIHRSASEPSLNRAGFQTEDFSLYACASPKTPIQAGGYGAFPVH
Method: (§1) Cells were plated in 6 well dishes (5 × 10^5–8 × 10^5 cells) and allowed to attach overnight. […] The plates were then placed on ice and washed 1x with chilled PBS and lysed in buffer containing 25 mM Tris-HCl [pH 7.4], 0.25% sodium deoxycholate, 150 mM NaCl, 1% Triton X-100, supplemented with protease inhibitors (1x Roche protease inhibitor cocktail) and phosphatase inhibitors (10 mM NaF, 1 mM Na3OV4, and 20 mM β-glycerophosphate). Lysates were then cleared at 21,000 g for 10 min at 4 °C. Protein concentrations of the supernatants were then quantified using a Pierce BCA Protein Assay. 12–40 µg of protein were separated using a gradient (4–20%) Criterion TGX precast gel and transferred unto a nitrocellulose membrane. The membranes were then blocked in 5% non-fat milk in TBST (Tris-buffered Saline with Tween 20) for 1 h before probing with the indicated primary antibody overnight. Membranes were imaged using Bio-Rad Image Lab software using ECL prime detection reagent (GE Healthcare, RPN2232 or ThermoScientific, 34095).
(§2) Western blot data was quantified by using the band feature in Image Lab, and values were averaged and analyzed in GraphPad Prism. DC50 and DMAX values were fitted using a three parameter [inhibitor] versus response and reported directly from the Prism output. Mean ± SD and unpaired t-tests were performed in GraphPad Prism.

[3] = tested on: MEK and ERK phosphorylation (SK-MEL-28 cells); experiment: MEK and ERK phosphorylation by immunoblot in SK-MEL-28 cells; type: cell-based
Method: as §1, §2

[4] = biological target: T3, BRAF^G469A (SK-MEL-246 cells, Class 2) (Homo sapiens, UniProt P15056, G469A); experiment: BRAF degradation by immunoblot in SK-MEL-246 cells; type: cell-based
T3 construct: endogenous in cells; host or cells: SK-MEL-246
T3 sequence (P15056 whole entry G469A): as the sequence (P15056 whole entry V600E) above, with G469A, E600V counted along it
Method: as §1, §2

[5] = biological target: T4, BRAF^WT (A-431 cells, HER1 amplification) (Homo sapiens, UniProt P15056); experiment: BRAF^WT degradation by immunoblot in A-431 cells; type: cell-based
T4 construct: endogenous in cells; host or cells: A-431
T4 sequence (P15056 whole entry): as the sequence (P15056 whole entry V600E) above, with E600V counted along it
Method: as §1, §2

[6] = biological target: T5, BRAF^WT (NCI-H23 cells, K-RAS^G12C) (Homo sapiens, UniProt P15056); experiment: BRAF^WT degradation by immunoblot in NCI-H23 cells; type: cell-based
T5 construct: endogenous in cells; host or cells: NCI-H23
T5 sequence (P15056 2-766, stated change not applied): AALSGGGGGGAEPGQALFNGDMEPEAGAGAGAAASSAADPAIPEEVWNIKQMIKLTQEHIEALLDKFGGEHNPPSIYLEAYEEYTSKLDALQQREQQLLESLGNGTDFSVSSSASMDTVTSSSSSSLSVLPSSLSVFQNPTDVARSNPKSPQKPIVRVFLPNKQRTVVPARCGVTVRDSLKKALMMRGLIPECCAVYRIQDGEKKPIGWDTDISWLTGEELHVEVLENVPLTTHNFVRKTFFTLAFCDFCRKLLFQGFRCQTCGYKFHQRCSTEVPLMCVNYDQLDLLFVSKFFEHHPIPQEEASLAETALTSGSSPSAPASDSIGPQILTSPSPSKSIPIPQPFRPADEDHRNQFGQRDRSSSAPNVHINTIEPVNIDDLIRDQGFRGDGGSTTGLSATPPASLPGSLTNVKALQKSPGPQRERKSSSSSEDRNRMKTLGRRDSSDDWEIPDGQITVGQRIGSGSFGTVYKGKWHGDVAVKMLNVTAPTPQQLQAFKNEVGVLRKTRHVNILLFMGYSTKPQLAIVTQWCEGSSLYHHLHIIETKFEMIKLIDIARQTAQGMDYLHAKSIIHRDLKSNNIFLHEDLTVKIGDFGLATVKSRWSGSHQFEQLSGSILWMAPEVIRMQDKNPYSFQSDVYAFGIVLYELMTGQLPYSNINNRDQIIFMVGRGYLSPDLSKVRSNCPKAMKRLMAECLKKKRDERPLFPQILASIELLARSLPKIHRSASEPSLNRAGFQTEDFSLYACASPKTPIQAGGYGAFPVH
Method: as §1, §2

[7] = biological target: T6, BRAF^WT (OVCAR-8 cells) (Homo sapiens, UniProt P15056); experiment: BRAF^WT degradation by immunoblot in OVCAR-8 cells; type: cell-based
T6 construct: endogenous in cells; host or cells: OVCAR-8
T6 sequence (P15056 whole entry): as the sequence (P15056 whole entry V600E) above, with E600V counted along it
Method: as §1, §2

[8] = biological target: T7, V5-tagged BRAF^WT (NIH3T3 cells) (Homo sapiens, UniProt P15056); experiment: V5-BRAF degradation by immunoblot in inducible NIH3T3 cells; type: cell-based
T7 construct: expressed in transfected cells; host or cells: NIH3T3 (mouse fibroblasts), doxycycline-inducible expression
T7 sequence (P15056 whole entry): as the sequence (P15056 whole entry V600E) above, with E600V counted along it
Method: as §1, §2

[9] = tested on: VBC:PROTAC:BRAF ternary complex (V5-BRAF^V600E vs V5-BRAF^WT, NIH3T3 lysates); experiment: Cell lysate based ternary complex (GST-VBC pulldown) assay; type: binding; details: 5000 nM SJF-0628
Method: Glutathione sepharose 4B was washed twice with water and then blocked for 1 h at room temperature with 10% BSA in TBST. The beads were then washed again twice with TBST and once with wash buffer (50 mM HEPES pH 7.5, 150 mM NaCl, 1 mM DTT, 0.01% NP40, 5 mM MgCl2, 10% glycerol) and then purified GST-VBC was immobilized for 2 h at 4 °C at 2.5 pmole per μL of beads. The beads were then washed thrice with wash buffer, resuspended and BRAF WT or V600E protein was added at 500 nM per 50 μL reaction with 5 μL of beads. The bead:BRAF mixture was then aliquoted to separate tubes and PROTAC was added at the indicated concentration (PROTACs were intermediately diluted in 50% DMSO) and this was incubated at 4 °C for 2 h. The beads were washed 4 times with 1 mL column of TBST and then eluted with SDS loading buffer.
For experiments in which the input substrate is a whole cell lysate, the sample was prepared as follows: […] of confluent NIH3T3 cells were doxycycline induced overnight, after which the cells were washed with DPBS and lysed using lysis buffer (50 mM Tris-HCl, pH 7.4, 015 M NaCl, 1 mM EDTA,1% NP40, 10% glycerol). The lysate was cleared by centrifugation and then added to the beads as an input substrate, as above.

[10] = tested on: H1666 cells (Class 3, BRAF^G466V); experiment: Cell proliferation (MTS) assay; type: cell-based; details: 5 days
[11] = tested on: CAL-12-T cells (Class 3, BRAF^G466V); experiment: Cell proliferation (MTS) assay; type: cell-based; details: 5 days
Method: […] 2 mg/ml MTS (Promega Corp., Madison, WI: G5421) and 25 μM phenazine methosulfate (Sigma, St. Louis, MO) were combined 19:1 and then added to cells (1 volume combined reagent: 5 volumes medium) and incubated for 1–3 h. Mitochondrial reduction of MTS to the formazan derivative was monitored by measuring the medium’s absorbance at 480 nm using a Perkin Elmer Envision Plate reader.

[12] = tested on: p-ERK (CAL-12-T cells); experiment: p-ERK inhibition by immunoblot in CAL-12-T cells; type: cell-based
Method: as §1, §2

[13] = tested on: SK-MEL-246 melanoma xenograft (Class 2, BRAF^G469A); experiment: SK-MEL-246 xenograft efficacy study; type: in vivo, mice
Method: (§3) 10 million SK-MEL-246 cells were subcutaneously implanted in female nu/nu mice. The tumor volumes and mice weights were measured twice a week after the implantation. […] All studies were performed in compliance with institutional guidelines under an Institutional Animal Care and Use Committee (IACUC) approved protocol. Investigators were not blinded when assessing the outcome of the in vivo experiments.

[14] = Body weight in SK-MEL-246 efficacy study; type: in vivo, mice; details: either dose (50 mg/kg BID, 100 mg/kg QD)
Method: as §3

T1 sequence (P15056 whole entry): as the sequence (P15056 whole entry V600E) above, with E600V counted along it

IC50 [1]: 39.2 nM | time for which BRAF^V600E degradation and p-ERK inhibition was sustained ([2]; 100 nM): up to 72 h | recovery of BRAF levels and MAPK phosphorylation after wash-out ([2]; 100 nM 24 h treatment, wash-out, 24 h after): 30% | time to near complete / maximal BRAF^V600E degradation ([2]; 100 nM time course): ≤ 4 h | DC50 ([2]; 20-24 h treatment, read-out: DC50 (half-maximal degradation)): 6.8 nM | Dmax ([2]; 20-24 h treatment, read-out: DMAX (percent of maximal degradation)): > 95% | DC50 [4]: 15 nM | Dmax [4]: > 95% | degradation of BRAF^WT ([5]; A-431 cells, PROTAC concentrations greater than 1 µM): ~ 30% | PROTAC-dependent degradation of BRAF^WT ([5]; GDC-0623 pre-treatment (500 nM, 3 h), SJF-0628 20 h, A431 (also OVCAR-8, SK-BR-3)): minimal PROTAC-dependent degradation | BRAF^WT degradation ([6]; MRTX849 pre-treatment 2 h): 20% | BRAF^WT degradation ([6]; PROTAC alone): 50% | BRAF^WT degradation [7]: minor BRAF^WT degradation | PROTAC-mediated BRAF^WT degradation ([8]; 1 µM PD0325901 pre-treatment 3 h, SJF-0628 1 μM 20 h): ~ 80% | degradation of BRAF^WT by the PROTAC ([8]; 1 µM SCH772984 pre-treatment 3 h, SJF-0628 20 h): ~ 90% | expression of WT RAF family members ([8]; doxycycline-inducible V5-BRAF, no pre-treatment): spared BRAF^WT, ARAF, and CRAF
Structure (SMILES): CCCS(=O)(=O)Nc1ccc(F)c(C(=O)c2c[nH]c3ncc(-c4ccc(N5CCN(CC(=O)NC(C(=O)N6CC(O)CC6C(=O)NCc6ccc(-c7scnc7C)cc6)C(C)(C)C)CC5)cc4)cc23)c1F (stereo not shown) [SJF-0628]
concentration giving maximal inhibition of MEK and ERK phosphorylation / maximal suppression of p-ERK [3]: 10 nM | increase in potency of the PROTAC over epimer SJF-0661 (p-ERK suppression) [3]: 10 fold | ternary complex with VHL, BRAF^V600E relative to BRAF^WT [9]: ~ 3 fold | cell growth inhibition [10]: 65% | inhibition of cell growth / effect on cell viability [11]: minimal inhibition of cell growth; also recorded: minimal effect on cell viability | inhibition of p-ERK [12]: > 70% | effect on tumor growth ([13]; once daily 100 mg/kg i.p.): minor response | effect on tumor growth ([13]; twice daily 50 mg/kg i.p., within 10 days, 50 mg/kg): tumor regression; also recorded: tumor shrinkage beyond the initial tumor size | body weight loss [14]: did not observe a significant body weight loss
